{"source": "patent US10653647B2", "about": "(priority 2003, dated 2020)", "tested_on": "terminal sensory nerve fibers of rat vulva", "assay": "reduction of nerve fiber density in rat vulva, PGP 9.5 immunostaining", "assay_type": "in vivo", "conditions": "33 μL, 1% (w/v) in DGME applied for 20 minutes, Day 7, statistical significance not established", "protocol": "Sixty female retired breeder Sprague-Dawley rats were divided into 6 groups. On day 0, rats were anesthetized with isoflurane anesthetic gas and then LMX5® anesthetic cream was applied to the entire vulvar area of each rat at least 30 minutes. The test formulations were applied using a micropipette to dispense 33 μL of each formulation. The formulations applied were diethylene glycol monoethyl ether (DGME) alone; 0.01% capsaicin (w/v) in DGME; 0.1% capsaicin (w/v) in DGME; 1% resiniferatoxin (w/v) in DGME; 3% capsaicin (w/v) in 90% (v/v) DGME and 10% (v/v) DMSO, a 10% capsaicin (w/v) in DGME. The formulations were left on for 20 minutes with the exception of 10% capsaicin (w/v) in DGME which was left on for 5 minutes. The remaining formulation was removed using a cleansing gel (89.08% PEG 300, 1.0% Carbopol 1382™, 0.02% butylated hydroxyanisole, 0.01% disodium edentate, pH 6.5). […] The tissues were evaluated by a board certified veterinary pathologist for (1) any and all lesions, with particular attention to inflammation and any microvascular changes, and (2) the presence, absence and any abnormalities in the architecture of the terminal nerve sensory nerve fibers. For each specimen, nerve fiber functionality was determined by counting the number of nerve fibers observed in at least four microscopical fields (each circular microscopical field has a radius of 90 μm) and then averaged. […]", "data": [{"smiles": "C=C(C)[C@]12C[C@@H](C)[C@@]34O[C@](Cc5ccccc5)(O[C@@H]1[C@@H]3C=C(COC(=O)Cc1ccc(O)c(OC)c1)C[C@]1(O)C(=O)C(C)=C[C@@H]41)O2", "note": "[resiniferatoxin]", "values": [{"measurement": "decrease in nerve fiber density", "value": 28, "unit": "%"}]}]}
